Data published in publication PMC6901909, “Synergy Pattern of Short Cationic Antimicrobial Peptides Against Multidrug-Resistant Pseudomonas aeruginosa” (Frontiers in Microbiology, 2019).
Values after ≈ are worked out from the molar mass of the structure shown. Peptide text beside a SMILES is read from it.

Assays:
Experiment in all cases: microbe, parasite or virus in culture
Type in all cases: cell-based, Pseudomonas aeruginosa
MDR P. aeruginosa PA 910 = details: MDR PA 910, 18 h
Protocol: (§1) We selected six different P. aeruginosa isolates that were described as MDR and had been isolated from clinical and municipal waste water ([Schwartz et al., 2006]). The minimal inhibitory concentration (MIC) was determined in a microdilution assay using Mueller-Hinton (MH) broth following a previously published protocol ([Wiegand et al., 2008]). Briefly, a twofold serial dilution of the antibiotics and peptides were prepared and added to a bacteria solution, resulting in 2–5 10^5 CFU/ml. The microtiter plates (polypropylene, Corning) were incubated for 18 h at 37°C and MICs were taken visually.

MDR P. aeruginosa PA 919 = details: MDR PA 919, 18 h
Protocol: as §1

MDR P. aeruginosa PA253 = details: MDR PA253, 18 h
Protocol: as §1

P. aeruginosa PA01-wt = details: -wt, 18 h
Protocol: as §1

Row | SMILES | MIC against PA910 in μM (peptides, Table 4) (MDR P. aeruginosa PA 910) [µM] | MIC against MDR isolates of PA, PA919 (MDR P. aeruginosa PA 919) [µM] | MIC against MDR isolates of PA, PA253 (MDR P. aeruginosa PA253) [µM] | MIC against PA01 wt (P. aeruginosa PA01-wt) [µM] | MIC against MDR isolates of PA, PA910 (MDR P. aeruginosa PA 910) [µM]
1 | CC[C@H](C)[C@H](NC(=O)[C@@H](N)Cc1ccccc1)C(=O)N[C@@H](CCCCN)C(=O)N[C@@H](Cc1c[nH]c2ccccc12)C(=O)N[C@@H](CCCNC(=N)N)C(=O)N[C@@H](CO)C(=O)N[C@@H](CCCNC(=N)N)C(=O)N[C@@H](Cc1c[nH]c2ccccc12)C(=O)N[C@@H](Cc1c[nH]c2ccccc12)C(=O)N[C@@H](CCCCN)C(=O)N[C@@H](CCCCN)C(=O)N[C@@H](CCCNC(=N)N)C(=O)N[C@H](C(N)=O)[C@@H](C)O [Indopt 3] (H-FIKWRSRWWKKRT-NH2) | 8 (≈ 15 µg/mL) | 32 | 16 | 4 (≈ 7.51 µg/mL) | –
2 | CC[C@H](C)[C@H](NC(=O)[C@@H](N)Cc1ccccc1)C(=O)N[C@@H](CCCCN)C(=O)N[C@@H](Cc1c[nH]c2ccccc12)C(=O)N[C@@H](CCCNC(=N)N)C(=O)N[C@@H](Cc1ccccc1)C(=O)N[C@@H](CCCNC(=N)N)C(=O)N[C@@H](CCCNC(=N)N)C(=O)N[C@@H](Cc1c[nH]c2ccccc12)C(=O)N[C@@H](CCCCN)C(=O)N[C@@H](CCCCN)C(=O)N[C@@H](CCCNC(=N)N)C(=O)N[C@@H](CCCCN)C(N)=O [Indopt 4] (H-FIKWRFRRWKKRK-NH2) | 4 to 8 | 16 to 32 | 8 | 4 (≈ 7.74 µg/mL) | 4 to 8
3 | CC[C@H](C)[C@H](NC(=O)[C@@H](N)Cc1ccccc1)C(=O)N[C@@H](CCCCN)C(=O)N[C@@H](Cc1c[nH]c2ccccc12)C(=O)N[C@@H](CCCCN)C(=O)N[C@@H](Cc1ccccc1)C(=O)N[C@@H](CCCNC(=N)N)C(=O)N1CCC[C@H]1C(=O)N[C@@H](Cc1c[nH]c2ccccc12)C(=O)N[C@@H](CCCCN)C(=O)N[C@@H](CCCCN)C(=O)N[C@@H](CCCNC(=N)N)C(=O)N[C@H](C(N)=O)[C@@H](C)O [Indopt 5] (H-FIKWKFRPWKKRT-NH2) | 8 (≈ 14.6 µg/mL) | 16 to 32 | 16 | 4 (≈ 7.28 µg/mL) | –
4 | CC[C@H](C)[C@H](NC(=O)[C@@H](N)Cc1ccccc1)C(=O)N[C@@H](CCCCN)C(=O)N[C@@H](CCCNC(=N)N)C(=O)N[C@@H](CCCCN)C(=O)N[C@@H](CO)C(=O)N[C@@H](CCCNC(=N)N)C(=O)N[C@@H](Cc1c[nH]c2ccccc12)C(=O)N[C@@H](Cc1c[nH]c2ccccc12)C(=O)N[C@@H](CCCCN)C(=O)N[C@@H](Cc1c[nH]c2ccccc12)C(=O)N[C@@H](CCCNC(=N)N)C(=O)N[C@H](C(N)=O)[C@@H](C)O [Indopt 6] (H-FIKRKSRWWKWRT-NH2) | 8 (≈ 15 µg/mL) | 32 | 8 to 16 | 4 (≈ 7.51 µg/mL) | –
5 | CC[C@H](C)[C@H](N)C(=O)N[C@@H](CC(C)C)C(=O)N[C@@H](CCCCN)C(=O)N[C@@H](Cc1c[nH]c2ccccc12)C(=O)N[C@@H](CCCCN)C(=O)N[C@@H](CCCNC(=N)N)C(=O)N[C@@H](CCCCN)C(=O)N[C@@H](Cc1c[nH]c2ccccc12)C(=O)N[C@@H](Cc1c[nH]c2ccccc12)C(=O)N[C@@H](CCCCN)C(=O)N[C@@H](Cc1c[nH]c2ccccc12)C(=O)N[C@@H](Cc1ccccc1)C(=O)N[C@@H](CCCNC(=N)N)C(N)=O [Indopt 7] (H-ILKWKRKWWKWFR-NH2) | 4 (≈ 7.84 µg/mL) | 32 | 8 | 2 (≈ 3.92 µg/mL) | –
6 | CC[C@H](C)[C@H](N)C(=O)N[C@@H](CC(C)C)C(=O)N[C@@H](CCCCN)C(=O)N[C@@H](Cc1c[nH]c2ccccc12)C(=O)N[C@@H](CCCCN)C(=O)N[C@H](C(=O)N[C@@H](Cc1ccccc1)C(=O)N[C@@H](CCCCN)C(=O)N[C@@H](Cc1c[nH]c2ccccc12)C(=O)N[C@@H](CCCCN)C(=O)N[C@@H](Cc1c[nH]c2ccccc12)C(=O)N[C@@H](Cc1ccccc1)C(=O)N[C@@H](CCCNC(=N)N)C(N)=O)[C@@H](C)CC [Indopt 10] (H-ILKWKIFKWKWFR-NH2) | 4 (≈ 7.51 µg/mL) | 32 | 8 to 16 | 2 (≈ 3.76 µg/mL) | –
7 | CC[C@H](C)[C@H](N)C(=O)N[C@@H](CC(C)C)C(=O)N[C@@H](CCCCN)C(=O)N[C@@H](Cc1c[nH]c2ccccc12)C(=O)N[C@@H](CCCCN)C(=O)N[C@@H](CCSC)C(=O)N[C@@H](Cc1ccccc1)C(=O)N[C@@H](CCCCN)C(=O)N[C@@H](Cc1c[nH]c2ccccc12)C(=O)N[C@@H](CCCCN)C(=O)N[C@@H](Cc1c[nH]c2ccccc12)C(=O)N[C@@H](Cc1ccccc1)C(=O)N[C@@H](CCCNC(=N)N)C(N)=O [Indopt 12] (H-ILKWKMFKWKWFR-NH2) | 4 (≈ 7.59 µg/mL) | 16 | 16 | 2 (≈ 3.79 µg/mL) | –
8 | CC(C)[C@H](NC(=O)[C@H](Cc1c[nH]c2ccccc12)NC(=O)[C@H](CCCNC(=N)N)NC(=O)[C@H](Cc1c[nH]c2ccccc12)NC(=O)[C@H](Cc1c[nH]c2ccccc12)NC(=O)[C@H](CCCNC(=N)N)NC(=O)[C@@H](N)CCCNC(=N)N)C(=O)N[C@H](C(=O)N[C@@H](Cc1c[nH]c2ccccc12)C(N)=O)C(C)C [LOP2] (H-RRWWRWVVW-NH2) | 8 (≈ 11.4 µg/mL) | 2 | 8 | 4 (≈ 5.71 µg/mL) | –
9 | CC[C@H](C)[C@H](NC(=O)[C@H](CCCNC(=N)N)NC(=O)[C@H](Cc1c[nH]c2ccccc12)NC(=O)[C@H](CCCNC(=N)N)NC(=O)[C@H](CCCNC(=N)N)NC(=O)[C@@H](N)CCCCN)C(=O)N[C@@H](Cc1c[nH]c2ccccc12)C(=O)N[C@@H](CC(C)C)C(=O)N[C@H](C(N)=O)C(C)C [LOP3] (H-KRRWRIWLV-NH2) | 8 (≈ 10.5 µg/mL) | 4 | 4 to 8 | 4 (≈ 5.25 µg/mL) | –
10 | CC[C@H](C)[C@H](NC(=O)[C@@H](NC(=O)[C@H](CCCNC(=N)N)NC(=O)[C@H](Cc1c[nH]c2ccccc12)NC(=O)[C@H](CCCNC(=N)N)NC(=O)[C@@H](N)CCCNC(=N)N)C(C)C)C(=O)N[C@H](C(=O)N[C@@H](CCCCN)C(=O)N[C@@H](Cc1c[nH]c2ccccc12)C(N)=O)C(C)C [LOP4] (H-RRWRVIVKW-NH2) | 4 (≈ 5.19 µg/mL) | 4 | 8 | 4 (≈ 5.19 µg/mL) | –
11 | CC[C@H](C)[C@H](NC(=O)[C@H](Cc1c[nH]c2ccccc12)NC(=O)[C@H](CCCCN)NC(=O)[C@H](CCCCN)NC(=O)[C@H](CC(C)C)NC(=O)[C@H](Cc1c[nH]c2ccccc12)NC(=O)[C@H](CCCCN)NC(=O)[C@@H](N)Cc1c[nH]c2ccccc12)C(=O)N[C@@H](CCCCN)C(N)=O [LOP5] (H-WKWLKKWIK-NH2) | 8 (≈ 10.5 µg/mL) | 8 | 8 | 4 (≈ 5.26 µg/mL) | –
12 | CC[C@H](C)[C@H](NC(=O)[C@H](CCCNC(=N)N)NC(=O)[C@H](CCCNC(=N)N)NC(=O)[C@H](CC(C)C)NC(=O)[C@@H](N)CCCNC(=N)N)C(=O)N[C@H](C(=O)N[C@H](C(=O)N[C@H](C(=O)N[C@@H](CCCNC(=N)N)C(=O)N[C@H](C(=O)N[C@@H](C)C(=O)N[C@@H](CCCNC(=N)N)C(N)=O)C(C)C)[C@@H](C)CC)C(C)C)C(C)C [Peptide R3] (H-RLRRIVVIRVAR-NH2) | 32 (≈ 48.2 µg/mL) | 16 | 16 | 16 (≈ 24.1 µg/mL) | –
13 | CC[C@H](C)[C@H](NC(=O)[C@H](CCCNC(=N)N)NC(=O)[C@H](C)NC(=O)[C@H](CC(C)C)NC(=O)[C@@H](N)CCCNC(=N)N)C(=O)N[C@H](C(=O)N[C@H](C(=O)N[C@H](C(=O)N[C@@H](CCCNC(=N)N)C(=O)N[C@@H](Cc1c[nH]c2ccccc12)C(=O)N[C@@H](C)C(=O)N[C@@H](CCCNC(=N)N)C(N)=O)[C@@H](C)CC)C(C)C)C(C)C [Peptide W10] (H-RLARIVVIRWAR-NH2) | – | 16 | 16 | 16 (≈ 24.1 µg/mL) | 16
